{"source": "patent US20110097268A1", "about": "“RADIOHALOIMATINIBS AND METHODS OF THEIR SYNTHESIS AND USE IN PET IMAGING OF CANCERS” (priority 2006, published 2011)", "experiment": "Storage stability of STI-Cl at room temperature", "format": "physicochemical", "description": "Attempts to make radiolabeling precursor, triflate, mesylate active leaving group from STI-OH failed because it was easily degraded into a mixture of starting material alcohol and STI-Cl during the purification of chromatography on Silica Gel. The behavior of these β-triflate amines may be due to the participation effect of nitrogen which cause triflate to leave by aliphatic chain cyclisation giving the aziridinium ion, which in turn reacts with the nucleophilic agent OH^−, Cl^−. In order to get a pure precursor, STI-Cl analog was selected as a target compound. The hydroxyl-Benzoic acid (9c) was treated with thionyl chloride to achieve the corresponding chloro-acid chloride dihydrochloride (10d). Subsequent condensation with N-(2-Methyl-5-aminophenyl)-4-(3-pyridyl)-2-pyrimidine-amine (6) in pyridine affords the STI-Cl. […] The Sti-Cl was treated with tetra ammonia fluoride at 80° C. in acetonitrile for 30 mins to generate cold Sti-F. Sti-Cl was also treated with tetra ammonia fluoride at 80° C. in acetonitrile microwave for 5 mins to generate cold Sti-F. The traditional heating method gave more yield and the microwave condition gave more clean reaction. (FIG. 3)."}
{"smiles": "Cc1ccc(NC(=O)c2ccc(CN3CCN(CCCl)CC3)cc2)cc1Nc1nccc(-c2cccnc2)n1", "note": "[STI-Cl]", "values": [{"measurement": "stability", "value": "not stable and decomposed at room temperature over two weeks"}]}
